This passage reports binding results from paper PMC9138568 (2022).

The test system of the assay is G3-OTAapt1-FAM (F1) (DNA, aptamer) GGGGATCGGGTGTGGGTGGCGTAAAGGGAGCATC
The assay is described as follows: fluorescence quenching (FAM, guanine PIET). To be noted: Na+ 120 mM, Ca2+ 3 mM; 10 mM Tris-HCl pH 8.4, room temperature; 20 nM F1; calibration curve only.

Structures are written as SMILES.

On to `C[C@@H]1Cc2c(Cl)cc(C(=O)N[C@@H](Cc3ccccc3)C(=O)O)c(O)c2C(=O)O1`, for which the binding entry was “yes”.
